Experimental data reported in the kinase profiling compilation of Christmann-Franck et al. (2016).

How the values were obtained:
Assay in all cases: KINOMEscan competition binding
Settings in all cases: compound 10.0 µM
[1] = biological target: STK36 (human) (UniProt Q9NRP7)
[2] = biological target: TAOK3 (human) (UniProt Q9H2K8)
[3] = biological target: CDC42BPB (human) (UniProt Q9Y5S2)
[4] = biological target: MAP2K2 (human) (UniProt P36507)
[5] = biological target: MYLK (human) (UniProt Q15746)
[6] = biological target: CLK1 (human) (UniProt P49759)
[7] = biological target: PRKX (human) (UniProt P51817)
[8] = biological target: CAMK2D (human) (UniProt Q13557)
[9] = biological target: MELK (human) (UniProt Q14680)
[10] = biological target: PKN1 (human) (UniProt Q16512)
[11] = biological target: MERTK (human) (UniProt Q12866)
[12] = biological target: STK3 (human) (UniProt Q13188)
[13] = biological target: STK35 (human) (UniProt Q8TDR2)
[14] = biological target: RAF1 (human) (UniProt P04049)
Sequence of RAF1 (human) (P04049 whole entry, looked up): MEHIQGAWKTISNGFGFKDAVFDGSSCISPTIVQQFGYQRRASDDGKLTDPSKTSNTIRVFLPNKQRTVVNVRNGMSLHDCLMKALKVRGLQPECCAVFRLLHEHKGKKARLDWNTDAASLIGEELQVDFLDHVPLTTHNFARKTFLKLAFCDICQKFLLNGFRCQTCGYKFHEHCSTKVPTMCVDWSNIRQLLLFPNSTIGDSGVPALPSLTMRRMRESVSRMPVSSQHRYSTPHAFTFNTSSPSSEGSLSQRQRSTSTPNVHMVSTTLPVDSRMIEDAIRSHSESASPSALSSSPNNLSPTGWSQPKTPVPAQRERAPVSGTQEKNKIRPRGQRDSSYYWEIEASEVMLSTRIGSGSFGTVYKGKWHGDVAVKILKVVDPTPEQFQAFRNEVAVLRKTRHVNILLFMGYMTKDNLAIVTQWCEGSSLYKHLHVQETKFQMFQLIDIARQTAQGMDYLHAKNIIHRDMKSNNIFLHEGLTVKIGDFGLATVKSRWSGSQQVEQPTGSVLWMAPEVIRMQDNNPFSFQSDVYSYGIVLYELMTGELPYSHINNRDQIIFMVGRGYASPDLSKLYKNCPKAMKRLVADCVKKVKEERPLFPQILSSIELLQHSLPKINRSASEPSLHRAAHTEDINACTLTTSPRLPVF

[15] = biological target: RPS6KA1 KD1 (human) (UniProt Q15418)
[16] = biological target: HCK (human) (UniProt P08631)
[17] = biological target: MAP3K7 (human) (UniProt O43318)
[18] = biological target: CDK17 (human) (UniProt Q00537)
[19] = biological target: FGFR4 (human) (UniProt P22455)
[20] = biological target: AAK1 (human) (UniProt Q2M2I8)
[21] = biological target: RPS6KA3 KD1 (human) (UniProt P51812)
[22] = biological target: ZAP70 (human) (UniProt P43403)
[23] = biological target: ACVR2A (human) (UniProt P27037)
[24] = biological target: RIOK2 (human) (UniProt Q9BVS4)
[25] = biological target: SRC (human) (UniProt P12931)
Sequence of SRC (human) (P12931 whole entry, looked up): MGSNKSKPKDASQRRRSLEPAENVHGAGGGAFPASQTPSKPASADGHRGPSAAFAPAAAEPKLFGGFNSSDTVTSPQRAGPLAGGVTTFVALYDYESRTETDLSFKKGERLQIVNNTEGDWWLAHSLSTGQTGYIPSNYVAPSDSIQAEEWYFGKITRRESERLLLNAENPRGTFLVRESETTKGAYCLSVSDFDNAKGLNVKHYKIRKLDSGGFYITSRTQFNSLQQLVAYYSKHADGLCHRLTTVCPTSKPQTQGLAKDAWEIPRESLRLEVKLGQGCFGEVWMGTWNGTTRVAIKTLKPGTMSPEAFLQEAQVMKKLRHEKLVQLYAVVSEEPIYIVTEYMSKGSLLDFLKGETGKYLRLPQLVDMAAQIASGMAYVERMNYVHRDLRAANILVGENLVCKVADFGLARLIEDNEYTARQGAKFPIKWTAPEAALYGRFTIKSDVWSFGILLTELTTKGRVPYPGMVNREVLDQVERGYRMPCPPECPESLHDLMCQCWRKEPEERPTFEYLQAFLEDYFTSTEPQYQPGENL

[26] = biological target: MET (human) (UniProt P08581)
[27] = biological target: PIK3CB (human) (UniProt P42338)
[28] = biological target: BMX (human) (UniProt P51813)
[29] = biological target: CAMK2B (human) (UniProt Q13554)
[30] = biological target: SIK1 (human) (UniProt P57059)
[31] = biological target: PHKG2 (human) (UniProt P15735)
[32] = biological target: TSSK1B (human) (UniProt Q9BXA7)
[33] = biological target: MYO3B (human) (UniProt Q8WXR4)
[34] = biological target: MAP3K9 (human) (UniProt P80192)
[35] = biological target: HIPK1 (human) (UniProt Q86Z02)
Sequence of HIPK1 (human) (Q86Z02 whole entry, looked up): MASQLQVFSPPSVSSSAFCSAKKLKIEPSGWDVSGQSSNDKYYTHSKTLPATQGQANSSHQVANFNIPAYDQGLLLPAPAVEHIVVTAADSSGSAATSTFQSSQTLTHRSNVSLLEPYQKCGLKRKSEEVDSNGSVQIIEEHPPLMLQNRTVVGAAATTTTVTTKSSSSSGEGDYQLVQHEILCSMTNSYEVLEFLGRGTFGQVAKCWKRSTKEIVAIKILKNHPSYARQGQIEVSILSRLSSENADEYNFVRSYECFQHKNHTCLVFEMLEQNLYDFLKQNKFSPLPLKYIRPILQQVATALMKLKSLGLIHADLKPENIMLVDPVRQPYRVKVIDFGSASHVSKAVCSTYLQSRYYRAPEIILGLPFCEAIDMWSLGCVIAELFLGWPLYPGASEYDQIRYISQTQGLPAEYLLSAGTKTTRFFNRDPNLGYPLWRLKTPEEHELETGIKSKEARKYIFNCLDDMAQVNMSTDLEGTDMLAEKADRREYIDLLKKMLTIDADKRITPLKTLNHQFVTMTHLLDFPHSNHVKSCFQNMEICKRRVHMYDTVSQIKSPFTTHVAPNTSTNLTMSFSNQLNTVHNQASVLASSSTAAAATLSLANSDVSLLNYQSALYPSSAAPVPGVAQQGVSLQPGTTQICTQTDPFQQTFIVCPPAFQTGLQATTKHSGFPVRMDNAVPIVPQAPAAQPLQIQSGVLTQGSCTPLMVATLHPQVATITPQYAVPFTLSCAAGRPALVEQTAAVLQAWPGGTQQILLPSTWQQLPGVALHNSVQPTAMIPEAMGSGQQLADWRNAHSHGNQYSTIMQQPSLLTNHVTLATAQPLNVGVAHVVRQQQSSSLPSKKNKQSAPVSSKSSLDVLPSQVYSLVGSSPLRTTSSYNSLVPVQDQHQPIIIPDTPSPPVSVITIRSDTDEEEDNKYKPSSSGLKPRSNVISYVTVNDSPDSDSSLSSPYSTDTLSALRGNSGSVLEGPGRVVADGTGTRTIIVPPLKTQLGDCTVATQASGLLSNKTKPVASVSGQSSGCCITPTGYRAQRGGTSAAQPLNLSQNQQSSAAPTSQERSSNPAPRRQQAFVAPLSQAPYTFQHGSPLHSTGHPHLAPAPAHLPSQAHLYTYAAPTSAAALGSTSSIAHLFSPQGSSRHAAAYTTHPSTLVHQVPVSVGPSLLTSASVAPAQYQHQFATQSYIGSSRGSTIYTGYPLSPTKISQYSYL

[36] = biological target: MYLK4 (human) (UniProt Q86YV6)
[37] = biological target: RPS6KA4 KD1 (human) (UniProt O75676)
[38] = biological target: PKMYT1 (human) (UniProt Q99640)
[39] = biological target: ALK (human) (UniProt Q9UM73)
[40] = test system: KIT (human), P10721 [V559D/T670I]
Sequence of KIT (human), P10721 [V559D/T670I] (P10721 whole entry V559D/T670I, looked up): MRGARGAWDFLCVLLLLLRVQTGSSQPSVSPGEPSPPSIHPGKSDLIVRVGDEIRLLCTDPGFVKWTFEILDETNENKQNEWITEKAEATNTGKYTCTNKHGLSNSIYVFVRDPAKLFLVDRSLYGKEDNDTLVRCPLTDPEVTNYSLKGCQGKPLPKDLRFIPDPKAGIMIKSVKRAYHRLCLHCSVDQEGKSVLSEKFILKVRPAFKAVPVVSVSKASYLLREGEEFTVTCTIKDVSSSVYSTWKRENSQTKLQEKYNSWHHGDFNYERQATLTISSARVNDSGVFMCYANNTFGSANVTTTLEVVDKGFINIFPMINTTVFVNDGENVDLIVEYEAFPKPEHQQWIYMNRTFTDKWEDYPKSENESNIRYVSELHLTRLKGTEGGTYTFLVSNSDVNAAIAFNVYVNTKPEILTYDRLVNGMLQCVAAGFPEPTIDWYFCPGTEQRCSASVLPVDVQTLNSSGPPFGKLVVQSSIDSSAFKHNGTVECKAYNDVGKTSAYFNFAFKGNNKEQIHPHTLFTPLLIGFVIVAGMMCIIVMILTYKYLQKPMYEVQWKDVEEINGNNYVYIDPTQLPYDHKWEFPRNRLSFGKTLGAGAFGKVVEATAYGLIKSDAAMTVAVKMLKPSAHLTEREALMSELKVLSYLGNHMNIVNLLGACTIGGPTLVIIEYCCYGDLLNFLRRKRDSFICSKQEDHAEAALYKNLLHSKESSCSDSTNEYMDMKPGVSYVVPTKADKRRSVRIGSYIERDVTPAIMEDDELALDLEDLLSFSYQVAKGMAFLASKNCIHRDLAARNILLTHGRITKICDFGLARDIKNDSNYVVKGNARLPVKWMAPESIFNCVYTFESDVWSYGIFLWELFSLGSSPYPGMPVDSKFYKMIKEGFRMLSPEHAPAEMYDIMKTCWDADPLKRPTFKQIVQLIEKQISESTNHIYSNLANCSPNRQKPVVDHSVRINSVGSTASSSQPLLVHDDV

[41] = biological target: DAPK3 (human) (UniProt O43293)
[42] = biological target: BTK (human) (UniProt Q06187)

Sequence of STK36 (human) (Q9NRP7 whole entry, looked up): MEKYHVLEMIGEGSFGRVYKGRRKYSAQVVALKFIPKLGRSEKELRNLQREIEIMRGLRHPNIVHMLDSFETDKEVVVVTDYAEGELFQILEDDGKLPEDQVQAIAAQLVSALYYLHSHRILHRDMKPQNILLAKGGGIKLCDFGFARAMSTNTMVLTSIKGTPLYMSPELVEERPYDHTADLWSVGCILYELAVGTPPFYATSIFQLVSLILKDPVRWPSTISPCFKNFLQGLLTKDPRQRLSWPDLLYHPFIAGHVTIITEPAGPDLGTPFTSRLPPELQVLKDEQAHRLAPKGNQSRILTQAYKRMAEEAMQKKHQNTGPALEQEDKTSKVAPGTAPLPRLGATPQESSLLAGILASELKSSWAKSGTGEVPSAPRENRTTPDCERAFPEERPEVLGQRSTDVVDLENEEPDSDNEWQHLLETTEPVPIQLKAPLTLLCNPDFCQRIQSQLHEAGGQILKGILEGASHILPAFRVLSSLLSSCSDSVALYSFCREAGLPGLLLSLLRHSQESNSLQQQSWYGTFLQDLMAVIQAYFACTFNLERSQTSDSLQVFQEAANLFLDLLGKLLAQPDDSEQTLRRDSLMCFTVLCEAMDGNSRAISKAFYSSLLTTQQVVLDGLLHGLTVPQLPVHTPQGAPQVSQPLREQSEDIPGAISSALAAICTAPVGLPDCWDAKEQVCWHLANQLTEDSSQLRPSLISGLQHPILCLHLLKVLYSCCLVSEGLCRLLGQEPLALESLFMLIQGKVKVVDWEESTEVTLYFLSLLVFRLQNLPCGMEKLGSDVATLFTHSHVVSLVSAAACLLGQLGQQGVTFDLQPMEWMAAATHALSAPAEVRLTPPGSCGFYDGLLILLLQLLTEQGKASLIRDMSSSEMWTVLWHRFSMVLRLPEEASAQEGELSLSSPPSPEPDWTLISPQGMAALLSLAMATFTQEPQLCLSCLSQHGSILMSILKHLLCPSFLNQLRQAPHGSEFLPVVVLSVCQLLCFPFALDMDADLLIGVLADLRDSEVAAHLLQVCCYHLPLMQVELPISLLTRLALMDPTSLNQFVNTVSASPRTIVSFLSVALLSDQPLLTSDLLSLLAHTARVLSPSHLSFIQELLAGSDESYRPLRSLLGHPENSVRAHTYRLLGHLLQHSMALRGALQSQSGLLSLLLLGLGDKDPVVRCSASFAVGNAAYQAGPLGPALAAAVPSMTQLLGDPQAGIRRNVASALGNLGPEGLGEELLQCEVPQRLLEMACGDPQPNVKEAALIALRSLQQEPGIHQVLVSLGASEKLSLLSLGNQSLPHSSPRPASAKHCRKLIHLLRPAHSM
Sequence of MAP2K2 (human) (P36507 whole entry, looked up): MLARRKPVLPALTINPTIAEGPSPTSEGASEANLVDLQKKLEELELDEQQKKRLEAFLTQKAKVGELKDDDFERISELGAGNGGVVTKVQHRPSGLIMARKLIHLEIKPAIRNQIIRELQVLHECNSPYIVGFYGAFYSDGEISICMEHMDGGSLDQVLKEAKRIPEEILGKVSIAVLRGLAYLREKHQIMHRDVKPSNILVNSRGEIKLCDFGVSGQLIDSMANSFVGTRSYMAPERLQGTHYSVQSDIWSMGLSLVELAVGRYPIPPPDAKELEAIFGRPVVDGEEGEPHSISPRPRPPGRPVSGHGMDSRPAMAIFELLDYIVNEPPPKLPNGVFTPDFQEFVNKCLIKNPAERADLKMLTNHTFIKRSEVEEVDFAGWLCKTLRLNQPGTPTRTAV

Molecule `CCN1CCN(Cc2ccc(NC(=O)c3ccc(C)c(/C=C/c4cnc(Nc5cc(N6CCNCC6)nc(C)n5)cn4)c3)cc2C(F)(F)F)CC1` has a kinase still bound, per cent of control [1] of 0.1%, a kinase still bound, per cent of control [2] of 0% and a kinase still bound, per cent of control [3] of 100%. For the same molecule, the kinase still bound, per cent of control [4] was 11%, the kinase still bound, per cent of control [5] was 67% and the kinase still bound, per cent of control [6] was 29%. The kinase still bound, per cent of control [7] was 100%, the kinase still bound, per cent of control [8] was 100% and the kinase still bound, per cent of control [9] was 25%. It also gave a kinase still bound, per cent of control [10] of 100%, a kinase still bound, per cent of control [11] of 31% and a kinase still bound, per cent of control [12] of 100%. For the same molecule, the kinase still bound, per cent of control [13] was 57%, the kinase still bound, per cent of control [14] was 43% and the kinase still bound, per cent of control [15] was 100%. For the same molecule, the kinase still bound, per cent of control [16] was 0.4%, the kinase still bound, per cent of control [17] was 0.75% and the kinase still bound, per cent of control [18] was 60%. The kinase still bound, per cent of control [19] was 34%, the kinase still bound, per cent of control [20] was 84% and the kinase still bound, per cent of control [21] was 43%. The kinase still bound, per cent of control [22] was 15%, the kinase still bound, per cent of control [23] was 100% and the kinase still bound, per cent of control [24] was 85%. For the same molecule, the kinase still bound, per cent of control [25] was 0.25%, the kinase still bound, per cent of control [26] was 78% and the kinase still bound, per cent of control [27] was 85%. The kinase still bound, per cent of control [28] was 12%, the kinase still bound, per cent of control [29] was 92% and the kinase still bound, per cent of control [30] was 3.6%. The kinase still bound, per cent of control [31] was 100%, the kinase still bound, per cent of control [32] was 100% and the kinase still bound, per cent of control [33] was 67%. For the same molecule, the kinase still bound, per cent of control [34] was 21%, the kinase still bound, per cent of control [35] was 34% and the kinase still bound, per cent of control [36] was 100%. For the same molecule, the kinase still bound, per cent of control [37] was 100%, the kinase still bound, per cent of control [38] was 100% and the kinase still bound, per cent of control [39] was 100%. The kinase still bound, per cent of control [40] was 14%, the kinase still bound, per cent of control [41] was 91% and the kinase still bound, per cent of control [42] was 0.2%.
Work on `CCN1CCN(Cc2ccc(NC(=O)c3ccc(C)c(Oc4ccnc5[nH]ccc45)c3)cc2C(F)(F)F)CC1` yielded a kinase still bound, per cent of control [1] of 0.2%, a kinase still bound, per cent of control [13] of 3% and a kinase still bound, per cent of control [14] of 7%. It also gave a kinase still bound, per cent of control [16] of 0.4%, a kinase still bound, per cent of control [18] of 0.1% and a kinase still bound, per cent of control [19] of 0.45%. The kinase still bound, per cent of control [25] was 0.2%, the kinase still bound, per cent of control [28] was 2.4% and the kinase still bound, per cent of control [30] was 5.3%. The kinase still bound, per cent of control [33] was 4.8%, the kinase still bound, per cent of control [35] was 6.2% and the kinase still bound, per cent of control [39] was 0.55%. The kinase still bound, per cent of control [40] was 0.05%.
For `COc1cc(N2CCC(N3CCN(C)CC3)CC2)ccc1Nc1ncc(Cl)c(Nc2ccccc2S(=O)(=O)C(C)C)n1`, the kinase still bound, per cent of control [1] was 5.8%, the kinase still bound, per cent of control [2] was 0.1% and the kinase still bound, per cent of control [3] was 25%. It also gave a kinase still bound, per cent of control [4] of 1.8%, a kinase still bound, per cent of control [5] of 0.5% and a kinase still bound, per cent of control [6] of 0.4%. The kinase still bound, per cent of control [7] was 28%, the kinase still bound, per cent of control [8] was 4.1% and the kinase still bound, per cent of control [9] was 0.95%. For the same molecule, the kinase still bound, per cent of control [10] was 0.5%, the kinase still bound, per cent of control [11] was 0% and the kinase still bound, per cent of control [12] was 0.25%. For the same molecule, the kinase still bound, per cent of control [14] was 40%, the kinase still bound, per cent of control [15] was 0.25% and the kinase still bound, per cent of control [16] was 0.35%. For the same molecule, the kinase still bound, per cent of control [17] was 2.2%, the kinase still bound, per cent of control [18] was 9.9% and the kinase still bound, per cent of control [20] was 2.8%. For the same molecule, the kinase still bound, per cent of control [21] was 0.55%, the kinase still bound, per cent of control [22] was 10% and the kinase still bound, per cent of control [23] was 12%. For the same molecule, the kinase still bound, per cent of control [24] was 5.3%, the kinase still bound, per cent of control [25] was 0.2% and the kinase still bound, per cent of control [26] was 0%. It also gave a kinase still bound, per cent of control [27] of 40%, a kinase still bound, per cent of control [29] of 5.8% and a kinase still bound, per cent of control [31] of 0%. The kinase still bound, per cent of control [32] was 0%, the kinase still bound, per cent of control [33] was 0.6% and the kinase still bound, per cent of control [34] was 0.35%. It also gave a kinase still bound, per cent of control [35] of 40%, a kinase still bound, per cent of control [36] of 40% and a kinase still bound, per cent of control [37] of 4.4%. The kinase still bound, per cent of control [38] was 40%, the kinase still bound, per cent of control [40] was 0.95% and the kinase still bound, per cent of control [41] was 4.5%. It also gave a kinase still bound, per cent of control [42] of 0%.
